In test [1] the target is His-tagged human recombinant kinase full-length Akt1 (Homo sapiens (Human), UniProt P31749). Kind of test: Akt1 kinase assay (TR-FRET). It counts as biochemical. Particulars: 10 μM ATP, read-out: Akt1, median IC50. An excerpt:
Biological Assay 1.0: Akt1 Kinase Assay
Akt1 inhibitory activity of compounds of the present invention was quantified employing the Akt1 TR-FRET assay as described in the following paragraphs.
His-tagged human recombinant kinase full-length Akt1 expressed in insect cells was purchased form Invitrogen (part number PV 3599). As substrate for the kinase reaction the biotinylated peptide biotin-Ahx-KKLNRTLSFAEPG (C-terminus in amide form) was used which can be purchased e.g. from the company Biosynthan GmbH (Berlin-Buch, Germany).
(§1) For the assay 50 nl of a 100 fold concentrated solution of the test compound in DMSO was pipetted into a black low volume 384 well microtiter plate (Greiner Bio-One, Frickenhausen, Germany), 2 μl of a solution of Akt1 in assay buffer [50 mM TRIS/HCl pH 7.5, 5 mM MgCl2, 1 mM dithiothreitol, 0.02% (v/v) Triton X-100 (Sigma)] were added and the mixture was incubated for 15 min at 22° C. to allow prebinding of the test compounds to the enzyme before the start of the kinase reaction. Then the kinase reaction was started by the addition of 3 μl of a solution of adenosine-tri-phosphate (ATP, 16.7 μM=>final conc. in the 5 μl assay volume is 10 μM) and substrate (1.67 μM=>final conc. in the 5 μl assay volume is 1 μM) in assay buffer and the resulting mixture was incubated for a reaction time of 60 min at 22° C. The concentration of Akt1 in the assay was adjusted depending of the activity of the enzyme lot and was chosen appropriate to have the assay in the linear range, typical enzyme concentrations were in the range of about 0.05 ng/μl (final conc. in the 5 μl assay volume).
(§2) The reaction was stopped by the addition of 5 μl of a solution of HTRF detection reagents (200 nM streptavidine-XL665 [Cisbio] and 1.5 nM anti-phosho-Serine antibody [Millipore, cat. #35-001] and 0.75 nM LANCE Eu-W 1024 labeled anti-mouse IgG antibody [Perkin Elmer]) in an aqueous EDTA-solution (100 mM EDTA, 0.1% (w/v) bovine serum albumin in 50 mM HEPES/NaOH pH 7.5).
(§3) The resulting mixture was incubated 1 h at 22° C. to allow the binding of the biotinylated phosphorylated peptide to the streptavidine-XL665 and the antibodies. Subsequently the amount of phosphorylated substrate was evaluated by measurement of the resonance energy transfer from the anti-mouse-IgG-Eu-Chelate to the streptavidine-XL665. Therefore, the fluorescence emissions at 620 nm and 665 nm after excitation at 350 nm was measured in a HTRF reader, e.g. a Rubystar (BMG Labtechnologies, Offenburg, Germany) or a Viewlux (Perkin-Elmer). The ratio of the emissions at 665 nm and at […] was taken as the measure for the amount of phosphorylated substrate. The data were normalised (enzyme reaction without inhibitor=0% inhibition, all other assay components but no enzyme=100% inhibition).
In general terms: In TR-FRET formats the signal depends on donor and acceptor labels being close together.

Test [2] deals with His-tagged human recombinant kinase full-length Akt2 (Homo sapiens (Human), UniProt P31751). In words: Akt2 kinase assay (TR-FRET). It counts as biochemical. Particulars: 10 μM ATP, read-out: Akt2, median IC50.
Description: Biological Assay 2.0: Akt2 Kinase Assay
Akt2 inhibitory activity of compounds of the present invention was quantified employing the Akt2 TR-FRET assay as described in the following paragraphs.
His-tagged human recombinant kinase full-length Akt2 expressed in insect cells and activated by PDK1 was purchased from Invitrogen (part number PV 3975). As substrate for the kinase reaction the biotinylated peptide biotin-Ahx-KKLNRTLSFAEPG (C-terminus in amide form) was used which can be purchased e.g. from the company Biosynthan GmbH (Berlin-Buch, Germany).
as §1, with “Akt2” for “Akt1”, “0.2” for “0.05”
as §2
as §3, with “TR-FRET” for “HTRF”

Test [3] concerns phospho-AKT at S473. Kind of test: Cellular p-AKT1/2/3-S473 assay in KPL-4 cells. To be noted: Homo sapiens, KPL4; KPL-4 breast tumour cell line, 2 hours treatment; read-out: pAKT-S743 median IC50. It counts as cell-based. The protocol:
The phospho-substrates of PI3K-AKT-mTOR axis were used as the readouts to reflect pathway inhibition. Cells were seeded at 60-80% confluency per well in 96-well cell culture plates. After overnight incubation at 37° C. 5% CO2, cells were treated with compounds and vehicle at 37° C. for 2 hours. […] All measurements where at least done in duplicates and confirmed by independent repetition. Alternatively pAKT-S473 was measured using the “Akt Duplex” of the MULTI-SPOT® Assay System (Fa. Meso Scale Discovery, Cat# N41100B-1) following manufacturers instructions. Each assay used 20 μg of protein extract and measured total AKT and p-AKT content simultaneously in one well. All measurements where at least done in duplicates and confirmed by independent repetition. Values for P-AKT are expressed as percentage of P-AKT level compared to total-AKT content of the extracts.

Test [4] has as its system MCF-7 breast tumour cell line. In words: Tumor cell proliferation assay (CellTiter-Glo, 72 h), MCF-7. It counts as cell-based. To be noted: Homo sapiens, MCF7, 72 h drug exposure. The protocol: (§4) Biological Assay 4.0: Tumor Cell Proliferation Assays
(§5) Compounds were tested in a cell-based assay that measures the capacity of the compounds to inhibit tumour cell proliferation following a 72 h drug exposure. Cell viability is determined using CellTiter-Glow® (CTG, Promega, cat# G7571/2/3). The CellTiter-Glo® Luminescent Cell Viability Assay is a homogeneous method to determine the number of viable cells in culture. Detection is based on using the luciferase reaction to measure the amount of ATP from viable cells. The amount of ATP in cells correlates with cell viability. Within minutes after a loss of membrane integrity, cells lose the ability to synthesize ATP, and endogenous ATPases destroy any remaining ATP; thus the levels of ATP fall precipitously.
(§6) Cells were plated at 3000-5000 cells/well (depending on the cell lines) in 90 μL growth medium on MTPs (Corning; #3603, black plate, clear flat bottom). For each cell line assayed, cells were plated onto a separate plate for determination of […] at t=0 hour and t=72 hour time points. Following overnight incubation at 37° C., chemiluminescence values for the t=0 samples were determined after adding 10 μl medium and 100 μl CTG solution according to manufacture protocol. Plates for the t=72 hour time points were treated with compounds diluted into growth medium at ten times final concentration added in 10 μL to the cell culture plate. Cells were then incubated for 72 hours at 37° C. Chemiluminescence values for the t=72 hour samples were determined. […] Experiments were controlled using a reference compound as standard.
(§7) Preferred compounds of the present invention show in this assay an inhibition of cell growth of cell lines such as the KPL-4 breast cancer cell line and the MCF-7 breast tumour cell line ([…], hormone dependent) with a median IC50 of <10 μM, more preferably, median IC50≦1 μM.
(Cellular ATP, detected with luciferase, serves as a proxy for viable cell number.)

Test [5] concerns p-4E-BP1 at T70. Kind of test: Cellular p-4E-BP1-T70 assay in KPL-4 cells. The test is classed as cell-based. Particulars: Homo sapiens, KPL4; KPL-4 breast tumour cell line, 2 hours treatment; read-out: P4EBP1-T70 median IC50. The protocol:
The molecular mechanism of action was investigated in a set of experiments to assess the inhibition of the PI3K-AKT-mTOR pathway in responsive cell lines such as KPL-4 breast tumour cell line (PIK3CA^H1047R, HER2^O/E and hormone independent). The phospho-substrates of PI3K-AKT-mTOR axis were used as the readouts to reflect pathway inhibition. Cells were seeded at 60-80% confluency per well in 96-well cell culture plates. After overnight incubation at 37° C. 5% CO2, cells were treated with compounds and vehicle at 37° C. for 2 hours. Thereafter, cells were lysed in 150 μl lysis buffer and the levels of phospho-AKT at T308 and S473 and p-4E-BP1 at T70 sites were determined with the corresponding AlphaScreen® SureFire® assay kits (Perkin Elmer: 4E-BP1 Assay Kit Cat # TRG4E2S10K; Akt 1/2/3 p-Ser 473 #TGRA4S500 and Akt 1/2/3 p-Thr 308 #TGRA3S500 as well as IgG detection Kit #6760617M) as described in the manuals. All measurements where at least done in duplicates and confirmed by independent repetition. Alternatively pAKT-S473 was measured using the “Akt Duplex” of the MULTI-SPOT® Assay System (Fa. Meso Scale Discovery, Cat# N41100B-1) following manufacturers instructions. Each assay used 20 μg of protein extract and measured total AKT and p-AKT content simultaneously in one well. All measurements where at least done in duplicates and confirmed by independent repetition. Values for P-AKT are expressed as percentage of P-AKT level compared to total-AKT content of the extracts.

For test [6], the system named is KPL-4 breast cancer cell line. In words: Tumor cell proliferation assay (CellTiter-Glo, 72 h), KPL-4. The test is classed as cell-based. Particulars: Homo sapiens, KPL4, 72 h drug exposure. The protocol: as §4, §5, §6, §7

His-tagged human recombinant kinase full-length Akt2, sequence (P31751 whole entry): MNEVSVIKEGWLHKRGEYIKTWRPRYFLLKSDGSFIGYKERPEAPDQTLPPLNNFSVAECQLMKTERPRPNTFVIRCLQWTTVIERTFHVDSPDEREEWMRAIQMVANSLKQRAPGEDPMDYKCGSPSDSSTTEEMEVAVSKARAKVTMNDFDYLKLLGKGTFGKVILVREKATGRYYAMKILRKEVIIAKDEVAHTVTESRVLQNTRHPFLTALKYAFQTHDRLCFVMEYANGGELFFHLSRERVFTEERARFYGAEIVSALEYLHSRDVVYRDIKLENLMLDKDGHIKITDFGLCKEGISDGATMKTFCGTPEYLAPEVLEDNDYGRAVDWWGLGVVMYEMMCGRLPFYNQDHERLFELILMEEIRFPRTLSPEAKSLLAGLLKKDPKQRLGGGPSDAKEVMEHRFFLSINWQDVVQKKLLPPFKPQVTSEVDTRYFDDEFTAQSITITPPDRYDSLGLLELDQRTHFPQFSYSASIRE
His-tagged human recombinant kinase full-length Akt1, sequence (P31749 whole entry): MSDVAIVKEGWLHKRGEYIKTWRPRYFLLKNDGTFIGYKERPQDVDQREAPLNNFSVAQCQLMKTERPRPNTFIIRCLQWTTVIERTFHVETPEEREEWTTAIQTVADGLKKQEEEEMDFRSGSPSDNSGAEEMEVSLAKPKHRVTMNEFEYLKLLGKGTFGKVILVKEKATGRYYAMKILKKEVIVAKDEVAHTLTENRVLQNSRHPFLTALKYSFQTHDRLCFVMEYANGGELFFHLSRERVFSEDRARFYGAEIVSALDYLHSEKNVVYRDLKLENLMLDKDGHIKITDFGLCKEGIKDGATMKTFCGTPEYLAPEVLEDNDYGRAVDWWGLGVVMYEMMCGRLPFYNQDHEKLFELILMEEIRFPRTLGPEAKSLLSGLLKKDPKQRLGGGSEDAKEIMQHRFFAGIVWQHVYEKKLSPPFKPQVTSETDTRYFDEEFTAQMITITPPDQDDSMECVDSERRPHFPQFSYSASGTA

`NC1(c2ccc(-c3nc4c(O)nccn4c3-c3ccccc3)cc2)CCC1` [Example 1, 2-[4-(1-Aminocyclobutyl)phenyl]-3-phenylimidazo[1,2-a]pyrazin-8-ol]: the values for the IC50 in test [1] and in test [2] were 1.6 µM and 0.97 µM, respectively.
Consider `CCOC(=O)c1cn2c(-c3ccccc3)c(-c3ccc(C4(N)CCC4)cc3)nc2cn1` [Example 5, Ethyl 2-[4-(1-aminocyclobutyl)phenyl]-3-phenylimidazo[1,2-a]pyrazine-6-carboxylate], for which the IC50 – broadly, the concentration needed to halve the response being measured – was 0.037 µM in test [3], 2.4 µM in test [4], 0.029 µM in test [5] and 10 µM in test [6]. The inhibition (commonly the change of the read-out against control, counted positive when it falls) at 1.67 µM was determined as 40.6% in test [4] (1.67 μM, read-out: MCF-7 median inhibition at 1.67 μM (%)) and 15.2% in test [6] (1.67 μM, read-out: KPL-4 median inhibition at 1.67 μM (%)).

The values are drawn from patent publication US9260435B2, “Substituted imidazopyrazines as Akt kinase inhibitors” (Bayer Intellectual Property GmbH, priority 2012, dated 2016).
